Key:
HBV core protein = HBV core protein (UniProt P03146); assay type: biochemical; details: read-out: Assembly Activity (IC50); BODIPY-FL labelled core protein, assembly started with NaCl, read after 6 min
Protocol: Biochemical Capsid Assembly Assay
The screening for assembly effector activity was done based on a fluorescence quenching assay published by Zlotnick et al. (2007). The C-terminal truncated core protein containing 149 amino acids of the N-terminal assembly domain was fused to a unique cysteine residue at position 150 and was expressed in E. coli using the pET expression system (Merck Chemicals, Darmstadt). Purification of core dimer protein was performed using a sequence of size exclusion chromatography steps. In brief, the cell pellet from 1 L BL21 (DE3) Rosetta2 culture expressing the coding sequence of core protein cloned NdeI/XhoI into expression plasmid pET21b was treated for 1 h on ice with a native lysis buffer (Qproteome Bacterial Protein Prep Kit; Qiagen, Hilden). After a centrifugation step the supernatant was precipitated during 2 h stirring on ice with 0.23 g/ml of solid ammonium sulfate. Following further centrifugation the resulting pellet was resolved in buffer A (100 mM Tris, pH 7.5; 100 mM NaCl; 2 mM DTT) and was subsequently loaded onto a buffer A equilibrated CaptoCore 700 column (GE HealthCare, Frankfurt). The column flow through containing the assembled HBV capsid was dialyzed against buffer N (50 mM NaHCO3 pH 9.6; 5 mM DTT) before urea was added to a final concentration of 3M to dissociate the capsid into core dimers for 1.5 h on ice. The protein solution was then loaded onto a 1 L Sephacryl S300 column. After elution with buffer N core dimer containing fractions were identified by SDS-PAGE and subsequently pooled and dialyzed against 50 mM HEPES pH 7.5; 5 mM DTT. To improve the assembly capacity of the purified core dimers a second round of assembly and disassembly starting with the addition of 5 M NaCl and including the size exclusion chromatography steps described above was performed. From the last chromatography step core dimer containing fractions were pooled and stored in aliquots at concentrations between 1.5 to 2.0 mg/ml at −80° C.
Immediately before labelling the core protein was reduced by adding freshly prepared DTT in a final concentration of 20 mM. After 40 min incubation on ice storage buffer and DTT was removed using a Sephadex G-25 column (GE HealthCare, Frankfurt) and 50 mM HEPES, pH 7.5. For labelling 1.6 mg/ml core protein was incubated at 4° C. and darkness overnight with BODIPY-FL maleimide (Invitrogen, Karlsruhe) in a final concentration of 1 mM. After labelling the free dye was removed by an additional desalting step using a Sephadex G-25 column. Labelled core dimers were stored in aliquots at 4° C. In the dimeric state the fluorescence signal of the labelled core protein is high and is quenched during the assembly of the core dimers to high molecular capsid structures. The screening assay was performed in black 384 well microtiter plates in a total assay volume of 10 μl using 50 mM HEPES pH 7.5 and 1.0 to 2.0 μM labelled core protein. Each screening compound was added in 8 different concentrations using a 0.5 log-unit serial dilution starting at a final concentration of 100 μM, 31.6 μM or 10 μM. In any case the DMSO concentration over the entire microtiter plate was 0.5%. The assembly reaction was started by the injection of NaCl to a final concentration of […] which induces the assembly process to approximately 25% of the maximal quenched signal. 6 min after starting the reaction the fluorescence signal was measured using a Clariostar plate reader (BMG Labtech, Ortenberg) with an excitation of 477 nm and an emission of 525 nm. As 100% and 0% assembly control HEPES buffer containing 2.5 M and 0 M NaCl was used. Experiments were performed thrice in triplicates. EC50 values were calculated by non-linear regression analysis using the Graph Pad Prism 6 software (GraphPad Software, La Jolla, USA).

HBV = experiment: Determination of HBV DNA from the supernatants of HepAD38 cells (anti-HBV activity); assay type: cell-based, hepatitis B virus; details: Hepatitis B virus, 144 h; HBV DNA in HepAD38 supernatant at day 6; read-out: Cell Activity (EC50)
Outline: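 HepAD38 cells (60,000/well) were treated with half-log compound dilutions in tetracycline-free medium to induce HBV production. On day 6, HBV DNA was purified from filtered supernatant and quantified by real-time PCR against plasmid standards. EC50 values came from non-linear regression of relative copy numbers, typically from three experiments in triplicate.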

Sequence of HBV core protein (P03146 whole entry, looked up): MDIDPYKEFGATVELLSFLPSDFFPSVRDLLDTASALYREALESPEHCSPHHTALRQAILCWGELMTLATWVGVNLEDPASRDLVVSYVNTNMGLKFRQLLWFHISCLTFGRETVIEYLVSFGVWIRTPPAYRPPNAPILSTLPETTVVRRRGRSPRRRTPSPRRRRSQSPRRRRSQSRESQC

Compound: O=C(Nc1nc2c(s1)CN(C(=O)c1cc3ccccc3[nH]1)CC2)C1CCC(O)CC1 (centres unmarked) [Example 411, 4-hydroxy-N-[5-(1H-indole-2-carbonyl)-4H,5H,6H,7H-[1,3]thiazolo[5,4-c]pyridin-2-yl]cyclohexane-1-carboxamide]
- IC50 (HBV core protein): < 5 µM
- EC50 (HBV): < 1 µM

Compound: O=C(c1cc2ccccc2[nH]1)N1CCc2nc(NC(CO)C3CCOC3)sc2C1 (centres unmarked) [Example 297, 2-{[5-(1H-indole-2-carbonyl)-4H,5H,6H,7H-[1,3]thiazolo[5,4-c]pyridin-2-yl]amino}-2-(oxolan-3-yl)ethan-1-ol]
- IC50 (HBV core protein): < 5 µM
- EC50 (HBV): < 1 µM

Compound: Nc1nc2c(s1)CN(C(=O)c1cc3c(C4CC4)cccc3[nH]1)CC2 [Example 82, 5-(4-cyclopropyl-1H-indole-2-carbonyl)-4H,5H,6H,7H-[1,3]thiazolo[5,4-c]pyridin-2-amine]
- IC50 (HBV core protein): 5 to 10 µM
- EC50 (HBV): 1 to 10 µM

Compound: CC(F)(F)c1cccc2[nH]c(C(=O)N3CCc4nc(NCC5(O)CCC5)sc4C3)cc12 [Example 372, 1-[({5-[4-(1,1-difluoroethyl)-1H-indole-2-carbonyl]-4H,5H,6H,7H-[1,3]thiazolo[5,4-c]pyridin-2-yl}amino)methyl]cyclobutan-1-ol]
- IC50 (HBV core protein): < 5 µM
- EC50 (HBV): 1 to 10 µM

Compound: CN(C)C1(CNc2nc3c(s2)CN(C(=O)c2cc4ccccc4[nH]2)CC3)CCC1 [Example 433, N-{[1-(dimethylamino)cyclobutyl]methyl}-5-(1H-indole-2-carbonyl)-4H,5H,6H,7H-[1,3]thiazolo[5,4-c]pyridin-2-amine]
- IC50 (HBV core protein): < 5 µM
- EC50 (HBV): < 1 µM

Compound: Nc1nc2c(s1)CN(C(=O)c1cc3c(Cl)cc(Cl)cc3[nH]1)CC2 [Example 168, 5-(4,6-dichloro-1H-indole-2-carbonyl)-4H,5H,6H,7H-[1,3]thiazolo[5,4-c]pyridin-2-amine]
- IC50 (HBV core protein): < 5 µM
- EC50 (HBV): < 1 µM

Compound: CCc1ccc(F)c2[nH]c(C(=O)N3CCc4nc(N)sc4C3)cc12 [Example 8, 5-(4-ethyl-7-fluoro-1H-indole-2-carbonyl)-4H,5H,6H,7H-[1,3]thiazolo[5,4-c]pyridin-2-amine]
- IC50 (HBV core protein): < 5 µM
- EC50 (HBV): < 1 µM

Compound: CC1(CNc2nc3c(s2)CN(C(=O)c2cc4ccccc4[nH]2)CC3)CCOC1 (centres unmarked) [Example 49, 5-(1H-indole-2-carbonyl)-N-[(3-methyloxolan-3-yl)methyl]-4H,5H,6H,7H-[1,3]thiazolo[5,4-c]pyridin-2-amine]
- IC50 (HBV core protein): < 5 µM
- EC50 (HBV): < 1 µM

Compound: CCc1cc(F)cc2[nH]c(C(=O)N3CCc4nc(NC[C@H]5CCOC5)sc4C3)cc12 [Example 329, 5-(4-ethyl-6-fluoro-1H-indole-2-carbonyl)-N-{[(3R)-oxolan-3-yl]methyl}-4H,5H,6H,7H-[1,3]thiazolo[5,4-c]pyridin-2-amine]
- IC50 (HBV core protein): < 5 µM
- EC50 (HBV): < 1 µM

Compound: O=C(c1cc2ccccc2[nH]1)N1CCc2nc(NCC3CCC3)sc2C1 [Example 418, N-(cyclobutylmethyl)-5-(1H-indole-2-carbonyl)-4H,5H,6H,7H-[1,3]thiazolo[5,4-c]pyridin-2-amine]
- IC50 (HBV core protein): 5 to 10 µM
- EC50 (HBV): < 1 µM

Compound: O=C(c1cc2ccccc2[nH]1)N1CCc2nc(NC3(c4ccccc4)CC3)sc2C1 [Example 419, 5-(1H-indole-2-carbonyl)-N-(1-phenylcyclopropyl)-4H,5H,6H,7H-[1,3]thiazolo[5,4-c]pyridin-2-amine]
- IC50 (HBV core protein): 5 to 10 µM
- EC50 (HBV): < 1 µM

Compound: O=C(c1cc2c(C(F)F)ccc(F)c2[nH]1)N1CCc2nc(NCC3CCOC3)sc2C1 (centres unmarked) [Example 322, 5-[4-(difluoromethyl)-7-fluoro-1H-indole-2-carbonyl]-N-[(oxolan-3-yl)methyl]-4H,5H,6H,7H-[1,3]thiazolo[5,4-c]pyridin-2-amine]
- IC50 (HBV core protein): < 5 µM
- EC50 (HBV): < 1 µM

Compound: CC(C)[C@H](N)C(=O)OCC1(CNc2nc3c(s2)CN(C(=O)c2cc4c(Cl)cc(F)cc4[nH]2)CC3)CC1 [Example 229, [1-({[5-(4-chloro-6-fluoro-1H-indole-2-carbonyl)-4H,5H,6H,7H-[1,3]thiazolo[5,4-c]pyridin-2-yl]amino}methyl)cyclopropyl]methyl (2S)-2-amino-3-methylbutanoate]
- IC50 (HBV core protein): < 5 µM
- EC50 (HBV): < 1 µM
